These results are taken from ChEMBL document CHEMBL2010689 (J Med Chem, 2012).

Data set [1] is described as follows: Metabolic stability in monkey liver S9 fraction assessed as compound remaining after 2 hrs. In kind it is ADME, subcellular, Macaca mulatta. As to conditions: rhesus monkey, read-out: Stability.
Data set [2] is described as follows: Metabolic stability in mouse liver S9 fraction assessed as compound remaining after 2 hrs. It counts as ADME, subcellular. The conditions noted are these: read-out: Stability.
Data set [3] in a line: Metabolic stability in rat liver S9 fraction assessed as compound remaining after 2 hrs. In kind it is ADME, subcellular. As to conditions: read-out: Stability.
Data set [4] can be described thus: Metabolic stability in human liver S9 fraction assessed as compound remaining after 2 hrs. In kind it is ADME, subcellular. The conditions noted are these: read-out: Stability.
The nature of data set [5]: Metabolic stability in dog liver S9 fraction assessed as compound remaining after 2 hrs. It counts as ADME, subcellular, Canis lupus familiaris. As to conditions: read-out: Stability.
The nature of data set [6]: Oral bioavailability in Sprague-Dawley rat at 5 mg/kg. In kind it is ADME, organism-based. The conditions noted are these: in vivo.
Data set [7] concerns the target Vascular endothelial growth factor receptor 2 (Homo sapiens, UniProt P35968).
Description: Inhibition of human recombinant VEGF-R2 expressed in baculovirus expression system using GST-PLCgamma as substrate after 1 hr by time-resolved fluorescence analysis
The next data set addresses Angiopoietin-1 receptor (Homo sapiens, UniProt Q02763).

pIC50: −log10 of the molar value. Where only a bound is given, the exact number is not on record here.

Sequence of Angiopoietin-1 receptor (Q02763 whole entry): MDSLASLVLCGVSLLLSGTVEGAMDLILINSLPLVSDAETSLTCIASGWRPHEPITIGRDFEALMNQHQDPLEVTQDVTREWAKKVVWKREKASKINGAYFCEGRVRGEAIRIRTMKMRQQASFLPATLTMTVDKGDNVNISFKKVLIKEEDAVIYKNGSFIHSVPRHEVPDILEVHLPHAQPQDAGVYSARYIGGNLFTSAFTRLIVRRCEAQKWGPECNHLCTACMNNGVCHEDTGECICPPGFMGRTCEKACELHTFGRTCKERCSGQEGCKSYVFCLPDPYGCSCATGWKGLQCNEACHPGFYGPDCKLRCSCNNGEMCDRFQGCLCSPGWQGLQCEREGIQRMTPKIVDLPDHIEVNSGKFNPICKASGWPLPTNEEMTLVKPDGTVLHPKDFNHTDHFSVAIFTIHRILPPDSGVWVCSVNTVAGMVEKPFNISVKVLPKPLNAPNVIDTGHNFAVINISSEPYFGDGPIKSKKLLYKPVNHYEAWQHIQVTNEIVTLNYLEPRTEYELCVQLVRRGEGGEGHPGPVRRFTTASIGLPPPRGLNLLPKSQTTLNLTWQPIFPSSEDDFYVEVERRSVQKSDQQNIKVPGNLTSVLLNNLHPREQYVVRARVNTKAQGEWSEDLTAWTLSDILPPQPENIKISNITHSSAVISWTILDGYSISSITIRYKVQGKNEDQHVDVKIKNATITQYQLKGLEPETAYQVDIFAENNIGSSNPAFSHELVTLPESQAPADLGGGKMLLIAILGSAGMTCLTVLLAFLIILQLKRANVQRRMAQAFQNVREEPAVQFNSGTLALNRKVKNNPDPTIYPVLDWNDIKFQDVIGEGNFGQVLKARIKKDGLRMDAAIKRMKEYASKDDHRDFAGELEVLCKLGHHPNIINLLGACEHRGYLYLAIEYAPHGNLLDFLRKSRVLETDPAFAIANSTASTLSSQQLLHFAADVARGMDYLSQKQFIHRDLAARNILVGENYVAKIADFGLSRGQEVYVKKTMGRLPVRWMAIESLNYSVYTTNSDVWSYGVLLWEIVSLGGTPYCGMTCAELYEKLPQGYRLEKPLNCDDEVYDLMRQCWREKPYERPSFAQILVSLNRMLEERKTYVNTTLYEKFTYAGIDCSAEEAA
Sequence of Vascular endothelial growth factor receptor 2 (P35968 whole entry): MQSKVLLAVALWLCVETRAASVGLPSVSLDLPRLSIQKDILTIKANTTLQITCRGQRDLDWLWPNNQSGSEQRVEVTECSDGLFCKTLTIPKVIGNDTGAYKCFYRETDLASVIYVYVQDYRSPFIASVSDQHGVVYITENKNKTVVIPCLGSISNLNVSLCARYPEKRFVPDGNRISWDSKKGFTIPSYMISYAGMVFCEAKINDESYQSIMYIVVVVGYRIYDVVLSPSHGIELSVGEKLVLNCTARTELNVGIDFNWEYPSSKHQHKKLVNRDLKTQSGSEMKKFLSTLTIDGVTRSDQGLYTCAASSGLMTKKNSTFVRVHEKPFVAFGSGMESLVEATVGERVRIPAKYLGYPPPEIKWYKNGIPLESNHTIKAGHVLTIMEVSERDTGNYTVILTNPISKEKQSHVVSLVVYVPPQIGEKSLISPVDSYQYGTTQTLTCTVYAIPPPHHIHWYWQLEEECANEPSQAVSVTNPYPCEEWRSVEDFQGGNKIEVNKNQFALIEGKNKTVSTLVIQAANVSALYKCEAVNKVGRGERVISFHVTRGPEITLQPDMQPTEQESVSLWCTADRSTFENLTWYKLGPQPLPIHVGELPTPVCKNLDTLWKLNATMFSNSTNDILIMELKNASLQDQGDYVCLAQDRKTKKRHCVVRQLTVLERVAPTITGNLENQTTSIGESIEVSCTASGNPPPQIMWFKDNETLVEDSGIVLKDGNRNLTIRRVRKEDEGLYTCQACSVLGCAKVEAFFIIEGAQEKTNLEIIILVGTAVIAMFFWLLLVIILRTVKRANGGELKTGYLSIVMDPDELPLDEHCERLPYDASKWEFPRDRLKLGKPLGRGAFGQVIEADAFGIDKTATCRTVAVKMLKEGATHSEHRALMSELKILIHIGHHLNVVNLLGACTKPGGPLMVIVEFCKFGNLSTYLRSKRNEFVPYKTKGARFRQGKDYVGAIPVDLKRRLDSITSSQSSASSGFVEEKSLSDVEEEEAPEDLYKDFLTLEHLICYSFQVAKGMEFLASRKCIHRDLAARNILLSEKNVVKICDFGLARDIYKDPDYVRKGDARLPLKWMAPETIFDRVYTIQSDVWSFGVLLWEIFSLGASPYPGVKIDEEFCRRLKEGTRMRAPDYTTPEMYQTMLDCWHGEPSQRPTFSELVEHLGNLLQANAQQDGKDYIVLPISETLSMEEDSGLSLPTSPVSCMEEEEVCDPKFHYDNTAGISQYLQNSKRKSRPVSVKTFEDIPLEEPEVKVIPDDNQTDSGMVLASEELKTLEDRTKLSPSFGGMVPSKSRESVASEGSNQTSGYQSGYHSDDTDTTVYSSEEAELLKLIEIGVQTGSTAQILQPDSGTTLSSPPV
Description for Angiopoietin-1 receptor: Inhibition of human recombinant Tie2 expressed in baculovirus expression system using GST-PLCgamma as substrate after 1 hr by time-resolved fluorescence analysis

By bioavailability is commonly meant the share of a dose that reaches the circulation, judged against a reference dose that is usually intravenous. In the case of `CCCn1c2ccc(Nc3ncccn3)cc2c2c3c(c4c(c21)CCc1nn(C)cc1-4)C(=O)NC3`, the remaining at 2 h in data set [1] came out at 44%; in data set [2], 65%; in data set [3], 65%; in data set [4] it was 54%; in data set [5], 65%. The bioavailability in data set [6] stood at 22%.
As usually defined, the pIC50 is −log10 of the IC50, conventionally taken in molar units. As for `Cc1cc(C)nc(Nc2ccc3c(c2)c2c4c(c5c(c2n3CC(C)C)CCc2nn(C)cc2-5)C(=O)NC4)n1`, the pIC50 (in data set [7]; on Angiopoietin-1 receptor) was < 5.52 in each case.
Take `COc1ccnc(Nc2ccc3c(c2)c2c4c(c5c(c2n3CC(C)C)CCc2nn(C)cc2-5)C(=O)NC4)n1`: on Angiopoietin-1 receptor, the pIC50 was < 6.00.
As for `CC(C)Cn1c2ccc(Nc3nccc(C(F)(F)F)n3)cc2c2c3c(c4c(c21)CCc1nn(C)cc1-4)C(=O)NC3`, the pIC50 against Angiopoietin-1 receptor is < 5.52.
Regarding `CC(C)n1c2ccc(Nc3ccncc3)cc2c2c3c(c4c(c21)CCc1nn(C)cc1-4)C(=O)NC3`, the pIC50 against Angiopoietin-1 receptor was < 5.52.
Consider `CC(C)OCc1ccc2c(c1)c1c3c(c4c(c1n2CCCO)Cc1ccccc1-4)C(=O)NC3` [CEP-5214], for which, on Angiopoietin-1 receptor, the pIC50 was < 5.00.
